Test results as given in ChEMBL document CHEMBL4368922 (Bioorg Med Chem Lett, 2019).
pIC50: −log10 of the molar value. One block for each molecule: values may come before it.

How the values were obtained:
[1] = molecular target: T1, Lysine-specific histone demethylase 1A (Homo sapiens, UniProt O60341)
Description: (§1) Inhibition of recombinant human LSD1 (172 to 852 residues) using biotin-labelled H3K4me2 (1 to 24 residues) after 1 hr by TR-FRET assay

[2] = molecular target: Menin/Histone-lysine N-methyltransferase MLL (Homo sapiens, UniProt O00255)
Description: (§2) Inhibition of full length human menin/FAM-tagged MLL1 (unknown origin) protein-protein interaction after 15 mins by fluorescence polarization assay

[3] = molecular target: T2, Amine oxidase [flavin-containing] A (Homo sapiens, UniProt P21397)
T2 sequence (P21397 whole entry): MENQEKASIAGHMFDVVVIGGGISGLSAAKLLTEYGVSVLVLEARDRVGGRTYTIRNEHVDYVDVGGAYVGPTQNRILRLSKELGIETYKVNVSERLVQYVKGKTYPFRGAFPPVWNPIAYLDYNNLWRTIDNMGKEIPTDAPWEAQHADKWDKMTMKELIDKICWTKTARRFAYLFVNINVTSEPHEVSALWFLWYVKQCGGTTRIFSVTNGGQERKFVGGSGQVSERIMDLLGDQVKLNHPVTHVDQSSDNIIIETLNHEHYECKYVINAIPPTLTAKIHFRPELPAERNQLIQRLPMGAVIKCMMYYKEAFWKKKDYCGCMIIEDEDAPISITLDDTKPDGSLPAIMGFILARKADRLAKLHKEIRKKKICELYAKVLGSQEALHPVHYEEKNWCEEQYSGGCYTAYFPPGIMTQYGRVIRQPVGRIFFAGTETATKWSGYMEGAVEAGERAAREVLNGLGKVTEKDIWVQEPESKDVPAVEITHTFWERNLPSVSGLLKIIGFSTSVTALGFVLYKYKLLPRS
Description: (§3) Inhibition of MAOA (unknown origin) by Promega MAO-Glo assay

[4] = molecular target: T3, Amine oxidase [flavin-containing] B (Homo sapiens, UniProt P27338)
T3 sequence (P27338 whole entry): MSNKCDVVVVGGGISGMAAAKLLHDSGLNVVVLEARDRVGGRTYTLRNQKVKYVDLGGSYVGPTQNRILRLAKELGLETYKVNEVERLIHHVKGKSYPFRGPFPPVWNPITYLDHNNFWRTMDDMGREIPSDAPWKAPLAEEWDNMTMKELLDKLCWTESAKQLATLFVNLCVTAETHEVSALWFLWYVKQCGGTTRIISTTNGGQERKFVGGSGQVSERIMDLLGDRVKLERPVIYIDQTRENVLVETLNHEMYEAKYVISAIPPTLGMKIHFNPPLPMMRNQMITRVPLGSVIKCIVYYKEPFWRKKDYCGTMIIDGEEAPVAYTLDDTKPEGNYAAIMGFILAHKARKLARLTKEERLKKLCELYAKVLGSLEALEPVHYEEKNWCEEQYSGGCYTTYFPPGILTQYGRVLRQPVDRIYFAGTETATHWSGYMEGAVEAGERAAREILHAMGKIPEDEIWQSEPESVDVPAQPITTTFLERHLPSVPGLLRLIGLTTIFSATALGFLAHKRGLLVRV
Description: (§4) Inhibition of MAOB (unknown origin) by Promega MAO-Glo assay

MV4-11 [5] = assay: cells; conditions: Homo sapiens, MV4-11, 168 h
Description: Antiproliferative activity against human MV4-11 cells after 168 hrs by MTS assay

MV4-11 [6] = assay: Antiproliferative activity against human MV4-11 cells after 240 hrs by MTS assay; assay type: functional, cell-based; conditions: MV4-11, 240 h
[7] = molecular target: Menin/Histone-lysine N-methyltransferase MLL (Homo sapiens, UniProt O00255+Q03164)
Description: as §2

[8] = molecular target: T1, Lysine-specific histone demethylase 1A; remark: listed apart in the source
Description: as §1

[9] = molecular target: T2, Amine oxidase [flavin-containing] A; remark: listed apart in the source
Description: as §3

[10] = molecular target: T3, Amine oxidase [flavin-containing] B; remark: listed apart in the source
Description: as §4

[11] = molecular target: T1, Lysine-specific histone demethylase 1A; assay: Inhibition of LSD1 in human MV4-11 cells assessed as increase in CD86 mRNA expression at 500 nM by SYBR Green dye-bsed RT-qPCR analysis relative to control; assay type: cell-based
[12] = molecular target: T1, Lysine-specific histone demethylase 1A; assay: Inhibition of LSD1 in human MV4-11 cells assessed as increase in CD86 mRNA expression at 100 nM by SYBR Green dye-bsed RT-qPCR analysis relative to control; assay type: cell-based

Menin/Histone-lysine N-methyltransferase MLL (Homo sapiens, UniProt O00255), sequence (O00255 whole entry): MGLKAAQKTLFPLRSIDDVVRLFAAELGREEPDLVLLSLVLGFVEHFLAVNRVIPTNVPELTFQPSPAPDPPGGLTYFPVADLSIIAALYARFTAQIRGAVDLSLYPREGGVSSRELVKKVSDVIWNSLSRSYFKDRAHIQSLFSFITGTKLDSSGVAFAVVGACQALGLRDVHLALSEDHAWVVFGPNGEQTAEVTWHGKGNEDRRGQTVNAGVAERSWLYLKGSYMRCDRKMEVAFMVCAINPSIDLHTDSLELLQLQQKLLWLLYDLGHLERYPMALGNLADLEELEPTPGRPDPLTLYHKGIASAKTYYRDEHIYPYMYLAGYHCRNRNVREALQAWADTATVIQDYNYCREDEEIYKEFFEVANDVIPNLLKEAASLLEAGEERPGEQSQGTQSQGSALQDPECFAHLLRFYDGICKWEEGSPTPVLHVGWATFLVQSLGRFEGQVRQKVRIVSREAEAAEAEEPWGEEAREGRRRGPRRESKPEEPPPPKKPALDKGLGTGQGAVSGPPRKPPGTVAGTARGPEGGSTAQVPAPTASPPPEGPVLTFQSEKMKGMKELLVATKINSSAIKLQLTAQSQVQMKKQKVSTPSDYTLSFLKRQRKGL
Menin/Histone-lysine N-methyltransferase MLL (Homo sapiens, UniProt O00255), sequence (Q03164 1-2718 partner limits assumed): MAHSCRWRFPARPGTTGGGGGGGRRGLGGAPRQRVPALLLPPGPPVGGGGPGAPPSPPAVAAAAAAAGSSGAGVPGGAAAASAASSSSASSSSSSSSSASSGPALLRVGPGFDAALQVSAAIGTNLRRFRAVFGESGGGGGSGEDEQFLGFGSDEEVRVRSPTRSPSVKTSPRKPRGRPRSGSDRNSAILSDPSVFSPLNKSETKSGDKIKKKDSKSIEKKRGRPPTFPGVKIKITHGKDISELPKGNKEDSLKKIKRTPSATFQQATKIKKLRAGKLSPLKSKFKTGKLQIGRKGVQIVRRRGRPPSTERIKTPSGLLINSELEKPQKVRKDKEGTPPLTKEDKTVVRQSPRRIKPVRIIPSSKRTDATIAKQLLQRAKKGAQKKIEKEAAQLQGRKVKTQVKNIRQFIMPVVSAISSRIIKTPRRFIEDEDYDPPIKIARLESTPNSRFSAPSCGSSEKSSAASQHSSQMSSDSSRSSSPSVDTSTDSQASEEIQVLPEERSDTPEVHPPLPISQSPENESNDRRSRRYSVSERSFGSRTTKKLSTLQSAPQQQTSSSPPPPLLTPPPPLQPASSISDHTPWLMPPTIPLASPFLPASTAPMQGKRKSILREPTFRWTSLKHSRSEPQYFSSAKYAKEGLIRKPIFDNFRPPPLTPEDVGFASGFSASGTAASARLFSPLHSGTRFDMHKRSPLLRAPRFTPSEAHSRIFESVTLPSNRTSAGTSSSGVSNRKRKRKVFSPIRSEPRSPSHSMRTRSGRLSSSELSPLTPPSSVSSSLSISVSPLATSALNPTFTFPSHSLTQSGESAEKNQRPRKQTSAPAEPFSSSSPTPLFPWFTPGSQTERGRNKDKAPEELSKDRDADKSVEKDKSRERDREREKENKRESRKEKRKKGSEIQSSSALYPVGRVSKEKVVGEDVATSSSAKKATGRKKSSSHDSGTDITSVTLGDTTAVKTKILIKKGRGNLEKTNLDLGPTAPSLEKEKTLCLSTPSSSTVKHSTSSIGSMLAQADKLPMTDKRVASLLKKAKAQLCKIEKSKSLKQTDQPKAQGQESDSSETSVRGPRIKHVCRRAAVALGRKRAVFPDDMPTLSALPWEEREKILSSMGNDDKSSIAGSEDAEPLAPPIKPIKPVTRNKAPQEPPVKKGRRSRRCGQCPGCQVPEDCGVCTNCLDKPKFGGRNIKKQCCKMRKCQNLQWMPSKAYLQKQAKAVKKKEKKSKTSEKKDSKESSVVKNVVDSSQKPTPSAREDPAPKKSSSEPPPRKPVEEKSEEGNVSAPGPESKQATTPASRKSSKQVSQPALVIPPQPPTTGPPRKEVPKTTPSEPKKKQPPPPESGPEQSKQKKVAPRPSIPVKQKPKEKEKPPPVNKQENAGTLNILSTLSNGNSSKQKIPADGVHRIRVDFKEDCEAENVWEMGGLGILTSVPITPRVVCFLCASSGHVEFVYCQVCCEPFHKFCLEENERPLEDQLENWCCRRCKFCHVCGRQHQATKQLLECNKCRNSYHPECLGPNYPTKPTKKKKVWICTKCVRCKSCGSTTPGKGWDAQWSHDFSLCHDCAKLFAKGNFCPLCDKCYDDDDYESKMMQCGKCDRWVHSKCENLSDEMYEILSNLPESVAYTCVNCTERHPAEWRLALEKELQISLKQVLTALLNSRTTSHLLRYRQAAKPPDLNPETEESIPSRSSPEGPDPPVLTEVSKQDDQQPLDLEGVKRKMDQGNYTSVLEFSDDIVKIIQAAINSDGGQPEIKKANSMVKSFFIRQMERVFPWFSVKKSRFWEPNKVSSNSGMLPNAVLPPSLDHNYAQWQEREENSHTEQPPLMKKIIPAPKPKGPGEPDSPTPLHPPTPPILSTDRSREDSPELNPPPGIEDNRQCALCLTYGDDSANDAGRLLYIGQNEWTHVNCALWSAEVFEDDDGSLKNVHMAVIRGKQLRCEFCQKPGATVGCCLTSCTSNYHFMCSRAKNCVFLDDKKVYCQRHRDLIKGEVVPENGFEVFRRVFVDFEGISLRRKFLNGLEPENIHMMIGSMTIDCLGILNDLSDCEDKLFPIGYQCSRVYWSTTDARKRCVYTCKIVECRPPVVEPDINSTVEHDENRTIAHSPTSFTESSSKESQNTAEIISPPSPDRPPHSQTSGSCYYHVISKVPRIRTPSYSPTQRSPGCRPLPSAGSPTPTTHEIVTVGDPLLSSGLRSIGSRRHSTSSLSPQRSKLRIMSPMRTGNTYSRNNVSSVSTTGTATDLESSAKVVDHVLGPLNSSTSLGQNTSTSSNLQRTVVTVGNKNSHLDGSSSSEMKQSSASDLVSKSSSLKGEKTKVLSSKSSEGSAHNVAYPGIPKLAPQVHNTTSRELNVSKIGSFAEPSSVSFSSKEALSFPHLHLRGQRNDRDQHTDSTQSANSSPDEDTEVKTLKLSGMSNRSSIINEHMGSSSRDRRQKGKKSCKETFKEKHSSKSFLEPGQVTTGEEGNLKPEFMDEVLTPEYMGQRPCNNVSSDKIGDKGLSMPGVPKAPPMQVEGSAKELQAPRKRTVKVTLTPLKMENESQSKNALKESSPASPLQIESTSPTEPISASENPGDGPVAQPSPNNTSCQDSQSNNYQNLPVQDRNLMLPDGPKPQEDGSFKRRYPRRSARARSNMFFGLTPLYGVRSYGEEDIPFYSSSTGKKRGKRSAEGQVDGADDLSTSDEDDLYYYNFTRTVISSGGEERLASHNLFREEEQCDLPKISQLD
Menin/Histone-lysine N-methyltransferase MLL (Homo sapiens, UniProt O00255), sequence (Q03164 2719-3969 partner limits assumed): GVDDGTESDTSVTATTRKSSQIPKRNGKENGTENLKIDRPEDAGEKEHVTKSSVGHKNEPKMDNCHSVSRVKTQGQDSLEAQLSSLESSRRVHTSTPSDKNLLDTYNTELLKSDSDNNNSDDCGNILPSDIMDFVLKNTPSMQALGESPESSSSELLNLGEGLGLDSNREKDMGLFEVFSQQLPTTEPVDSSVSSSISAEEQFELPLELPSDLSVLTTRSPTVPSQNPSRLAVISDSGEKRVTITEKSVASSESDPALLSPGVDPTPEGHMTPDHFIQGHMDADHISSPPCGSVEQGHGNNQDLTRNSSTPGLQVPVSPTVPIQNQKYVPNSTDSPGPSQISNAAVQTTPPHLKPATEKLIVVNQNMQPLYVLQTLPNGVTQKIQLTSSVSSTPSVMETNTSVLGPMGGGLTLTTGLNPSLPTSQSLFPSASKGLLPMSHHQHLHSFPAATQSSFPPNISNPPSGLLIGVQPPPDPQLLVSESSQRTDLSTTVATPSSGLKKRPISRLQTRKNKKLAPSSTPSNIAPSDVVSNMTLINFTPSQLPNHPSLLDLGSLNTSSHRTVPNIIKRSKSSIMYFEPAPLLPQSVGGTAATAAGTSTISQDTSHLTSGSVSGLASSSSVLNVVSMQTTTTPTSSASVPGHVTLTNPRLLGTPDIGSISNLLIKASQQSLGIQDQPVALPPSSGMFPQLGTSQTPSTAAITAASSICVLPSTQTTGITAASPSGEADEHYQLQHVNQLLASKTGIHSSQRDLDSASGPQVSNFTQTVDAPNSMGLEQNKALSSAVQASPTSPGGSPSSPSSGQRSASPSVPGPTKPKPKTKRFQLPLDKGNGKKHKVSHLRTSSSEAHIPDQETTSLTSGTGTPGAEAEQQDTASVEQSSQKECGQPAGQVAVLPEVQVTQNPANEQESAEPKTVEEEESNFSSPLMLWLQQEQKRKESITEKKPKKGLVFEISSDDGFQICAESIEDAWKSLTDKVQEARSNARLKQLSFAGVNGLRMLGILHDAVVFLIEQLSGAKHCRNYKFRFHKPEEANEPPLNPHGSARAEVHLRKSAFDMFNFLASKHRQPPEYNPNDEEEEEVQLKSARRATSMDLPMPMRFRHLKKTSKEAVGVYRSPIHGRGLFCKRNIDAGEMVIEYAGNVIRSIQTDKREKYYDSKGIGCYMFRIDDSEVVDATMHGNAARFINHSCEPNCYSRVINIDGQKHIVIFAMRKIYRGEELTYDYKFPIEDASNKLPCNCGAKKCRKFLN
Menin/Histone-lysine N-methyltransferase MLL (Homo sapiens, UniProt O00255+Q03164), sequence (O00255 whole entry): as the sequence (O00255 whole entry) above
Menin/Histone-lysine N-methyltransferase MLL (Homo sapiens, UniProt O00255+Q03164), sequence (Q03164 1-2718 limits assumed): as the sequence (Q03164 1-2718 partner limits assumed) above
Menin/Histone-lysine N-methyltransferase MLL (Homo sapiens, UniProt O00255+Q03164), sequence (Q03164 2719-3969 limits assumed): as the sequence (Q03164 2719-3969 partner limits assumed) above

- pIC50 [1]: 6.73
- pIC50 [2]: < 4.00
- pIC50 [3]: 5.07
- pIC50 [4]: 4.66
- pIC50 (MV4-11 [5]): 5.26
SMILES: FC(F)(F)Cc1cc2c(N[C@H]3CC[C@H](CN[C@H]4C[C@@H]4c4ccccc4)CC3)ncnc2s1

- IC50 [8]: Not Active
- IC50 [9]: Not Active
- IC50 [10]: Not Active
- pIC50 (MV4-11 [5]): 5.59
SMILES: CC1(C)CN=C(N2CCN(c3ncnc4sc(CC(F)(F)F)cc34)CC2)S1

- pIC50 [1]: 6.96
- pIC50 [2]: < 4.00
- pIC50 [3]: 5.39
- pIC50 [4]: 5.32
- pIC50 (MV4-11 [5]): 5.53
SMILES: FC(F)(F)Cc1cc2c(N[C@H]3CC[C@H](CN[C@@H]4C[C@H]4c4ccccc4)CC3)ncnc2s1

- pIC50 [1]: 7.21
- pIC50 [2]: < 4.00
- pIC50 [3]: 5.04
- pIC50 [4]: 5.02
- pIC50 (MV4-11 [5]): 5.22
SMILES: FC(F)(F)Cc1cc2c(N3CCC(CN[C@H]4C[C@@H]4c4ccccc4)CC3)ncnc2s1

- pIC50 [1]: 6.44
- pIC50 [2]: < 4.00
- pIC50 [3]: 4.68
- pIC50 [4]: 4.69
- pIC50 (MV4-11 [5]): 5.16
SMILES: Fc1ccc([C@@H]2C[C@H]2NC[C@H]2CC[C@H](Nc3ncnc4sc(CC(F)(F)F)cc34)CC2)cc1F

- pIC50 [1]: 6.91
- pIC50 [2]: 4.29
- pIC50 [3]: 5.34
- pIC50 [4]: 5.22
- pIC50 (MV4-11 [5]): 5.60
SMILES: FC(F)(F)Cc1cc2c(N[C@H]3CC[C@@H](N[C@@H]4C[C@H]4c4ccccc4)CC3)ncnc2s1

- fold change (FC) [12]: 7.59
- pIC50 [1]: 7.18
- pIC50 [2]: 5.67
- pIC50 [3]: 4.39
- pIC50 [4]: 5.92
- pIC50 (MV4-11 [5]): 6.29
SMILES: Fc1ccc([C@@H]2C[C@H]2N[C@H]2CC[C@@H](Nc3ncnc4sc(CC(F)(F)F)cc34)CC2)cc1F

- fold change (FC) [11]: 22.3
- pIC50 [1]: 6.67
- pIC50 [2]: 4.99
- pIC50 [3]: 4.90
- pIC50 [4]: 4.40
- pIC50 (MV4-11 [5]): 6.54
SMILES: FC(F)(F)Cc1cc2c(N3CCC(N[C@@H]4C[C@H]4c4ccccc4)CC3)ncnc2s1

The remaining lines, values behind:

SMILES: O=C(O)c1ccc(CN2CCC(CN[C@@H]3C[C@H]3c3ccccc3)CC2)cc1 [GSK2879552]
- pIC50 (MV4-11 [6]): 5.94
- pIC50 [1]: 5.92
- pIC50 [3]: < 4.00
- pIC50 [4]: < 4.00
- IC50 [7]: Not Active

SMILES: FC(F)(F)Cc1cc2c(N[C@H]3CC[C@H](N[C@@H]4C[C@H]4c4ccccc4)CC3)ncnc2s1
- fold change (FC) [11]: 16.4
- pIC50 [1]: 6.52
- pIC50 [2]: 4.43
- pIC50 [3]: 4.18
- pIC50 [4]: < 4.00
- pIC50 (MV4-11 [5]): 6.31

SMILES: Fc1ccc([C@@H]2C[C@H]2N[C@H]2CC[C@H](Nc3ncnc4sc(CC(F)(F)F)cc34)CC2)cc1F
- pIC50 [1]: 6.83
- pIC50 [2]: < 4.00
- pIC50 [3]: 4.32
- pIC50 [4]: 4.15
- pIC50 (MV4-11 [5]): 5.70

SMILES: FC(F)(F)Cc1cc2c(N3CCC(CN[C@@H]4C[C@H]4c4ccccc4)CC3)ncnc2s1
- pIC50 [1]: 7.07
- pIC50 [2]: 4.76
- pIC50 [3]: 5.65
- pIC50 [4]: 5.94
- pIC50 (MV4-11 [5]): 4.94

SMILES: FC(F)(F)Cc1cc2c(N[C@H]3CC[C@H](N[C@H]4C[C@@H]4c4ccccc4)CC3)ncnc2s1
- pIC50 [1]: 6.73
- pIC50 [2]: < 4.00
- pIC50 [3]: 4.89
- pIC50 [4]: 4.54
- pIC50 (MV4-11 [5]): 5.44

SMILES: Fc1ccc([C@@H]2C[C@H]2NC2CCN(c3ncnc4sc(CC(F)(F)F)cc34)CC2)cc1F
- pIC50 [1]: 6.62
- pIC50 [2]: < 4.00
- pIC50 [3]: 4.25
- pIC50 [4]: 4.02
- pIC50 (MV4-11 [5]): < 4.00

SMILES: FC(F)(F)Cc1cc2c(N[C@H]3CC[C@@H](N[C@H]4C[C@@H]4c4ccccc4)CC3)ncnc2s1
- pIC50 [1]: 6.62
- pIC50 [2]: 4.61
- pIC50 [3]: < 4.00
- pIC50 [4]: 4.12
- pIC50 (MV4-11 [5]): 5.47

SMILES: Fc1ccc([C@@H]2C[C@H]2NCC2CCN(c3ncnc4sc(CC(F)(F)F)cc34)CC2)cc1F
- pIC50 [1]: 6.60
- pIC50 [2]: 4.51
- pIC50 [3]: 4.68
- pIC50 [4]: 4.31
- pIC50 (MV4-11 [5]): < 4.00

SMILES: FC(F)(F)Cc1cc2c(N3CCC(N[C@H]4C[C@@H]4c4ccccc4)CC3)ncnc2s1
- pIC50 [1]: 6.16
- pIC50 [2]: 4.46
- pIC50 [3]: 5.08
- pIC50 [4]: 4.44
- pIC50 (MV4-11 [5]): 5.14
